{"source": "patent US8828674B2", "about": "“Functional identification of proteins underlying Icrac activity in a cell” (The Queen's Medical Center, priority 2007, dated 2014)", "key": {"CRACM1-E106D": {"biological_target": "CRACM1-E106D (Homo sapiens, UniProt Q96D31, E106D)", "sequence (Q96D31 whole entry E106D)": "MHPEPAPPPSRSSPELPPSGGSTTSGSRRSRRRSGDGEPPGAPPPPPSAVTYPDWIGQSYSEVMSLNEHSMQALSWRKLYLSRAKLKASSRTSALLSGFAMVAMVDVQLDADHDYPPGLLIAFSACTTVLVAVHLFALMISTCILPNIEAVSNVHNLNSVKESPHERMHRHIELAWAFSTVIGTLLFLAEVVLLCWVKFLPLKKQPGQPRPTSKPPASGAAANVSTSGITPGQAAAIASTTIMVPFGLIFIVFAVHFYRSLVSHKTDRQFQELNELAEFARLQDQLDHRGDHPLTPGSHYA", "description": "(§1) Patch-clamp experiments were performed in the tight-seal whole-cell configuration at 21-25° C. High-resolution current recordings were acquired using the EPC-9 (HEKA). Voltage ramps of 50 ms duration spanning a range of −150 to +150 mV were delivered from a holding potential of 0 mV at a rate of 0.5 Hz over a period of 100-300 sec. All voltages were corrected for a liquid junction potential of 10 mV. Currents were filtered at 2.9 kHz and digitized at 100 μs intervals. Capacitive currents were determined and corrected before each voltage ramp. Extracting the current amplitude at −80 mV from individual ramp current records assessed the low-resolution temporal development of currents. Where applicable, statistical errors of averaged data are given as means± S.E.M. with n determinations. Standard external solutions were as follows (in mM): 120 NaCl, 2 MgCl2, 10 CaCl2, 10 TEA-Cl, 10 HEPES, 10 glucose, pH 7.2 with NaOH, 300 mOsm. In some experiments, Na^+-free solutions were applied, where NaCl was replaced equimolarly by tetraethylammonium-chloride (TEA-Cl). For Ca^2+-free external solutions CaCl2 was omitted, but Mg^2+ was retained. The divalent-free external solution (DVF) was based on the standard external solution but in the absence of CaCl2 and MgCl2 and additionally supplemented with 10 mM EDTA. Divalent replacement solutions were based on the standard external solution but with 10 mM CaCl2 replaced by 10 mM BaCl2. […] Standard internal solutions were as follows (in mM): 120 Cs-glutamate, 20 Cs-BAPTA, 3 MgCl2, 10 HEPES, 0.02 IP3, pH 7.2 with CsOH, 300 mOsm. In the experiments of FIG. 2, 10 mM EGTA was used and in FIG. 3, [Ca^2+]i was buffered to defined levels using 20 mM Cs-BAPTA and appropriate concentrations of CaCl2 as calculated with WebMaxC. For passive-depletion experiments, IP3 was omitted from the internal solution. All chemicals were purchased from Sigma-Aldrich Co."}, "CRACM1-E190A": {"biological_target": "CRACM1-E190A (Homo sapiens, UniProt Q96D31, E190A)", "sequence (Q96D31 whole entry E190A)": "as the sequence (Q96D31 whole entry E106D) above, with D106E, E190A counted along it", "description": "as §1"}, "CRACM3 [1]": {"biological_target": "T1, CRACM3 (Homo sapiens, UniProt Q9BRQ5)", "description": "Patch-clamp experiments were performed in the tight-seal whole-cell configuration at 21-25° C. High-resolution current recordings were acquired using the EPC-9 (HEKA). Voltage ramps of 50 ms duration spanning a range of −150 to +150 mV were delivered from a holding potential of 0 mV at a rate of 0.5 Hz over a period of 100-300 sec. All voltages were corrected for a liquid junction potential of 10 mV. Currents were filtered at 2.9 kHz and digitized at 100 μs intervals. Capacitive currents were determined and corrected before each voltage ramp. Extracting the current amplitude at −80 mV from individual ramp current records assessed the low-resolution temporal development of currents. Where applicable, statistical errors of averaged data are given as means± S.E.M. with n determinations. Standard external solutions were as follows (in mM): 120 NaCl, 2 MgCl2, 10 CaCl2, 10 TEA-Cl, 10 HEPES, 10 glucose, pH 7.2 with NaOH, 300 mOsm. In some experiments, Na^+-free solutions were applied, where NaCl was replaced equimolarly by tetraethylammonium-chloride (TEA-Cl). For Ca^2+-free external solutions CaCl2 was omitted, but Mg^2+ was retained. […] In the experiments of FIG. 2, 10 mM EGTA was used and in FIG. 3, [Ca^2+]i was buffered to defined levels using 20 mM Cs-BAPTA and appropriate concentrations of CaCl2 as calculated with WebMaxC. […]"}, "CRACM3 [2]": {"biological_target": "T1, CRACM3", "description": "(§2) To assess the functional properties of CRACM proteins, all three CRACM species were overexpressed in HEK293 cells. CRAC currents were measured in response to rapid Ca2+ store depletion by 20 μM inositol 1,4,5-trisphosphate (IP3) as well as following passive store depletion by perfusing cells with 20 mM BAPTA, which results in a slower store depletion that relies on Ca2+ leaking from stores. Full length human CRACM1 (accession no. NM_032790) and CRACM1-E106Q were subcloned as described. Full length human CRACM2 (accession no. NM_032831) and CRACM3 (accession no. NM_152288) were amplified from cDNAs (purchased from Origene) using high fidelity Pfu Ultra High Fidelity polymerase (Stratagene) and subcloned into pCAGGS-IRES-GFP vector. […] CRACM proteins were over-expressed in HEK293 cells stably expressing STIM1 using lipofectamine 2000 (Invitrogen) and the GFP expressing cells were selected by fluorescence.\nas §1\nNormally, CRAC currents are highly Ca^2+-selective and poorly permeable to K^+ or Cs^+, resulting in positive reversal potentials.\nThe monovalent versus divalent cation permeation was investigated in ion substitution experiments, where either Ca^2+ was removed from the extracellular solution or Na^+ was replaced by TEA.", "remark": "listed apart in the source"}, "CRACM1": {"biological_target": "CRACM1 (Homo sapiens, UniProt Q96D31)", "sequence (Q96D31 whole entry)": "as the sequence (Q96D31 whole entry E106D) above, with D106E counted along it", "details": "without STIM1 overexpression", "description": "as §2, with “described.” for “described. Full length human CRACM2 (accession no. NM_032831) and CRACM3 (accession no. NM_152288) were amplified from cDNAs (purchased from Origene) using high fidelity Pfu Ultra High Fidelity polymerase (Stratagene) and subcloned into pCAGGS-IRES-GFP vector.”\n(§3) Patch-clamp experiments were performed in the tight-seal whole-cell configuration at 21-25° C. […] Capacitive currents were determined and corrected before each voltage ramp. Extracting the current amplitude at −80 mV from individual ramp current records assessed the low-resolution temporal development of currents. […] In the experiments of FIG. 2, 10 mM EGTA was used and in FIG. 3, [Ca^2+]i was buffered to defined levels using 20 mM Cs-BAPTA and appropriate concentrations of CaCl2 as calculated with WebMaxC. […]"}, "CRACM2": {"biological_target": "CRACM2 (Homo sapiens, UniProt Q96SN7)", "sequence (Q96SN7 whole entry)": "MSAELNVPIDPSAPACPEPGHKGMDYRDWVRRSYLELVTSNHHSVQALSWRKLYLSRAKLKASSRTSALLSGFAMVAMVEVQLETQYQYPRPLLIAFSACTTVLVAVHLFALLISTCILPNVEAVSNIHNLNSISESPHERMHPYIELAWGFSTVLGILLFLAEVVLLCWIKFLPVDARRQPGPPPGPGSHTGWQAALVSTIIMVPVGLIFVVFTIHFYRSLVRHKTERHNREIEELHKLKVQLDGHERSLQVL", "details": "50 μM 2-APB", "description": "as §2, with “described.” for “described. Full length human CRACM2 (accession no. NM_032831) and CRACM3 (accession no. NM_152288) were amplified from cDNAs (purchased from Origene) using high fidelity Pfu Ultra High Fidelity polymerase (Stratagene) and subcloned into pCAGGS-IRES-GFP vector.”\nas §3"}, "[3]": {"details": "50 μM 2-APB, 0 Ca Sodium Ringer"}}, "data": [{"smiles": "NCCOB(c1ccccc1)c1ccccc1", "note": "[2-APB, 2-aminoethoxydiphenyl borate]", "values": [{"measurement": "Response of CRACM1-E106D expressed alone to 2-APB", "setting": "CRACM1-E106D; 50 μM 2-APB, [Ca2+]i 150 nM, no STIM1", "value": "rapid increase in inward current, followed by complete block, and a slow reactivation"}, {"measurement": "Reversal potential of the reactivated current after 2-APB", "setting": "CRACM1-E106D; CRACM1-E106D alone, +16 mV for the mutant without 2-APB", "value": 0, "unit": "mV"}, {"measurement": "Response of CRACM1-E190A co-expressed with STIM1 to 2-APB", "setting": "CRACM1-E190A; 50 μM 2-APB after IP3-induced CRAC currents fully activated", "value": "large facilitation followed by rapid inhibition"}, {"measurement": "Response of CRACM1-E190A expressed alone, without STIM1, to 2-APB", "setting": "CRACM1-E190A; 50 μM 2-APB, wild-type HEK293, no IP3, [Ca2+]i ~150 nM", "value": "large, transient increase in both inward and outward current"}, {"measurement": "Reversal potential of the 2-APB-facilitated current", "setting": "CRACM1-E190A; CRACM1-E190A with STIM1, 50 μM 2-APB, +55 mV before 2-APB", "value": "+33 mV"}, {"measurement": "Current with 2-APB administered intracellularly", "setting": "CRACM3 [1]; 50 μM 2-APB in pipette solution, [Ca2+]i ~150 nM", "value": "no store-operated or 2-APB induced current was elicited"}, {"measurement": "Reversal potential of the 2-APB-evoked CRACM3 current", "setting": "CRACM3 [1]; 50 μM 2-APB, CRACM3 alone, FIG. 6D", "value": "+30 mV"}, {"measurement": "Change of outward current on 2-APB application in Ca2+-free extracellular solution", "setting": "CRACM3 [2]; [3]", "value": "nearly tripled"}, {"measurement": "Reduction of average inward current on 2-APB application in Ca2+-free extracellular solution versus Ca2+-containing solutions", "setting": "CRACM3 [2]; [3]", "value": 53, "unit": "%"}, {"measurement": "Reversal potential with 2-APB in Ca2+-free extracellular solution", "setting": "CRACM3 [2]; 50 μM 2-APB, 0 Ca Sodium Ringer, shift from +94 mV", "value": "+10 mV"}, {"measurement": "Effect of replacing extracellular Na+ with TEA+ on inward or outward currents induced by 2-APB", "setting": "CRACM3 [2]; 50 μM 2-APB, 10 mM Ca TEA Ringer", "value": "no significant effect"}, {"measurement": "Reversal potential after 2-APB application, internal K+", "setting": "CRACM3 [2]; 50 μM 2-APB, IP3, K+-based internal solution", "value": 29, "unit": "mV"}, {"measurement": "Average 2-APB-mediated current compared to CRACM3 currents without STIM1 overexpression", "setting": "CRACM3 [2]; 50 μM 2-APB, STIM1 cells with CRACM3", "value": "approximately twice as large"}, {"measurement": "Reversal potential with 2-APB in 10Ca/TEA Ringer", "setting": "CRACM3 [2]; 50 μM 2-APB, red I/V of FIG. 6G", "value": "+30 mV"}, {"measurement": "Permeability ratio PCs/PCs in presence of 2-APB", "setting": "CRACM3 [2]; Goldman-Hodgkin-Katz analysis, 10Ca/TEA Ringer (red I/V), +30 mV", "value": 50}, {"measurement": "Permeability ratio PNs/PCs in presence of 2-APB", "setting": "CRACM3 [2]; Goldman-Hodgkin-Katz analysis, Ca2+-free conditions, Erev=+10 mV", "value": 1.5}, {"measurement": "Permeability ratio PCa/PNa in presence of 2-APB", "setting": "CRACM3 [2]; Goldman-Hodgkin-Katz analysis, normally in excess of 100-fold", "value": 33}, {"measurement": "Store- and STIM1-independent gating of wild-type CRACM1 by 2-APB", "setting": "CRACM1", "value": "largely resistant"}, {"measurement": "Sensitivity of CRACM2 to 2-APB-mediated inhibition (versus CRACM1)", "setting": "CRACM2", "value": "significantly less sensitive"}]}]}
